Test [1] is described as follows: Antioxidant activity assessed as increase in total ferric ion reducing activity at 150 uM using FeCl3.H2O and TPTZ incubated for 5 mins by FRAP assay relative to control. On the set-up: scale not given: the % may be the effect or the level left. Format: functional.
The nature of test [2]: Antioxidant activity assessed as ABTS radical scavenging activity at 150 uM measured after 5 mins by spectrophotometric assay relative to control. Format: functional.
Test [3] is described as follows: Antioxidant activity assessed as ABTS radical scavenging activity at 75 uM measured after 30 mins by spectrophotometric assay relative to control. In kind it is functional.
Test [4] deals with Acetylcholinesterase (Electrophorus electricus) (UniProt O42275). As to the kind of experiment: Inhibition of Electrophorus electricus AChE at 10 uM using acetylthiocholine iodide as substrate preincubated for 5 mins followed by substrate addition and measured after 5 mins by Ellman's method relative to control. In general terms: In Ellman's method for cholinesterases, released thiocholine reacts with DTNB.
Acetylcholinesterase (Electrophorus electricus), sequence (O42275 24-633 limits assumed): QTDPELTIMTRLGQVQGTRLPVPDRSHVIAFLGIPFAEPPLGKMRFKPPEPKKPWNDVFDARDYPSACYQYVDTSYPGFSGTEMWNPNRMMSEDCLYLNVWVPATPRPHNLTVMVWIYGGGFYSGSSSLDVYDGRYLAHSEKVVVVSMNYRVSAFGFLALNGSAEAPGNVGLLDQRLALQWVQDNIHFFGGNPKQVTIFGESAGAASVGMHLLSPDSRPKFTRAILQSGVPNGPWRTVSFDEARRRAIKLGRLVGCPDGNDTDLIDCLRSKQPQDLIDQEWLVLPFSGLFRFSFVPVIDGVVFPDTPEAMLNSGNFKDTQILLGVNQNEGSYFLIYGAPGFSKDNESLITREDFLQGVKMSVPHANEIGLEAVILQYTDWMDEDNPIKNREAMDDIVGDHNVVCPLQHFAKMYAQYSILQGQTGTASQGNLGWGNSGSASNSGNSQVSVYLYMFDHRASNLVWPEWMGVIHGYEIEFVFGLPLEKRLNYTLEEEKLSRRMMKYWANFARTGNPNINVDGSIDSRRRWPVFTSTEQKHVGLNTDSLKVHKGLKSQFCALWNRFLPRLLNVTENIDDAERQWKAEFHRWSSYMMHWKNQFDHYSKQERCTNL

A short description of test [5]: Antioxidant activity assessed as ABTS radical scavenging activity at 150 uM measured after 60 mins by spectrophotometric assay relative to control. Format: functional.
Test [6] addresses Amyloid-beta precursor protein (Homo sapiens) (UniProt P05067). The conditions noted are these: at 10 µM.
Description: Inhibition of amyloid beta (1 to 42) (unknown origin) aggregation at 10 uM expressed in Escherichia coli BL21 (DE3) incubated for 24 hrs by thioflavin T-based fluorometric assay relative to control
Test [7] is described as follows: Antioxidant activity assessed as increase in total ferric ion reducing activity at 30 uM using FeCl3.H2O and TPTZ incubated for 5 mins by FRAP assay relative to control. Format: functional. Set-up: scale not given: the % may be the effect or the level left.
Test [8] can be described thus: Antioxidant activity assessed as ABTS radical scavenging activity at 75 uM measured after 60 mins by spectrophotometric assay relative to control. Format: functional.
Test [9] in a line: Antioxidant activity assessed as ABTS radical scavenging activity at 150 uM measured after 30 mins by spectrophotometric assay relative to control. In kind it is functional.
In the next test the target is Beta-secretase 1 (Homo sapiens, UniProt P56817). The conditions noted are these: 50 uM.
Beta-secretase 1, sequence (P56817 whole entry): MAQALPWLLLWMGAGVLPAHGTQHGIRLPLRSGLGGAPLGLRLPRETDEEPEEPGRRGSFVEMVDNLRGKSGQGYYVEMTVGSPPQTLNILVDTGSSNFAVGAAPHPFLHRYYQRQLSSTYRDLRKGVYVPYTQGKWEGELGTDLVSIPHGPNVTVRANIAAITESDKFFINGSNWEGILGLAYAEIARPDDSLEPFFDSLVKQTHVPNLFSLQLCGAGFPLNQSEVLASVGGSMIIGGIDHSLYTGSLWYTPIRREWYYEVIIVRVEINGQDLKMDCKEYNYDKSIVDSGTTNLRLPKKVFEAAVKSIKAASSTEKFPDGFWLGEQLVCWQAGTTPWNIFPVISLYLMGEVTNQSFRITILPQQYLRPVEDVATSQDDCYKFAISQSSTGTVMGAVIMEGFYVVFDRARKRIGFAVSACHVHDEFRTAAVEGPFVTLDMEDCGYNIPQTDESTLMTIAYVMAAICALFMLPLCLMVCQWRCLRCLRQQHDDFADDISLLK
Test [10] can be described thus: Metal chelating activity assessed as Cu2+-compound complex formation at 50 uM after 30 mins by UV-Visible spectrophotometric method.
The nature of test [11]: Antioxidant activity assessed as increase in total ferric ion reducing activity at 75 uM using FeCl3.H2O and TPTZ incubated for 5 mins by FRAP assay relative to control. In kind it is functional. Set-up: scale not given: the % may be the effect or the level left.
Test [12] can be described thus: Antioxidant activity assessed as ABTS radical scavenging activity at 75 uM measured after 5 mins by spectrophotometric assay relative to control. In kind it is functional.
Test [13] in a line: Antioxidant activity assessed as increase in total ferric ion reducing activity at 30 uM using FeCl3.H2O and TPTZ incubated for 30 mins by FRAP assay relative to control. In kind it is functional. Set-up: scale not given: the % may be the effect or the level left.
Test [14] is described as follows: Antioxidant activity assessed as increase in total ferric ion reducing activity at 75 uM using FeCl3.H2O and TPTZ incubated for 30 mins by FRAP assay relative to control. On the set-up: scale not given: the % may be the effect or the level left. Format: functional.
Another test has as its target Cholinesterase (Equus caballus, UniProt P81908).
A short description of test [15]: Antioxidant activity assessed as ABTS radical scavenging activity at 30 uM measured after 30 mins by spectrophotometric assay relative to control. In kind it is functional.
Test [16] has as its target Microtubule-associated protein tau (Homo sapiens) (UniProt P10636). As to the kind of experiment: Inhibition of tau aggregation (unknown origin) at 10 uM expressed in Escherichia coli BL21 (DE3) incubated for 24 hrs by thioflavin T-based fluorometric assay relative to control.
Test [17] is described as follows: Antioxidant activity assessed as ABTS radical scavenging activity at 30 uM measured after 5 mins by spectrophotometric assay relative to control. Format: functional.
Test [18] in a line: Antioxidant activity assessed as increase in total ferric ion reducing activity at 30 uM using FeCl3.H2O and TPTZ incubated for 60 mins by FRAP assay relative to control. In kind it is functional. Set-up: scale not given: the % may be the effect or the level left.
The nature of test [19]: Antioxidant activity assessed as increase in total ferric ion reducing activity at 75 uM using FeCl3.H2O and TPTZ incubated for 60 mins by FRAP assay relative to control. Set-up: scale not given: the % may be the effect or the level left. In kind it is functional.
A short description of test [20]: Antioxidant activity assessed as increase in total ferric ion reducing activity at 150 uM using FeCl3.H2O and TPTZ incubated for 30 mins by FRAP assay relative to control. Set-up: scale not given: the % may be the effect or the level left. Format: functional.
Test [21] is described as follows: Antioxidant activity assessed as increase in total ferric ion reducing activity at 150 uM using FeCl3.H2O and TPTZ incubated for 60 mins by FRAP assay relative to control. Set-up: scale not given: the % may be the effect or the level left. Format: functional.
The nature of test [22]: Antioxidant activity assessed as ABTS radical scavenging activity at 30 uM measured after 60 mins by spectrophotometric assay relative to control. In kind it is functional.
Test [23] concerns the target Cholinesterase (Equus caballus) (UniProt P81908). As to the kind of experiment: Inhibition of equine serum BuChE at 10 uM using butyrylthiocholine chloride as substrate pre-incubated for 5 mins followed by substrate addition and measured after 5 mins by Ellman's method relative to control.
For test [24], the target named is Amyloid-beta precursor protein (Homo sapiens) (UniProt P05067). Nature of the test: Inhibition of HFIP-pretreated amyloid beta (1 to 42) (unknown origin) aggregation at 10 uM after 48 hrs measured every 3 mins by thioflavin T-based fluorometric assay relative to control.
Amyloid-beta precursor protein (Homo sapiens), sequence (P05067 whole entry): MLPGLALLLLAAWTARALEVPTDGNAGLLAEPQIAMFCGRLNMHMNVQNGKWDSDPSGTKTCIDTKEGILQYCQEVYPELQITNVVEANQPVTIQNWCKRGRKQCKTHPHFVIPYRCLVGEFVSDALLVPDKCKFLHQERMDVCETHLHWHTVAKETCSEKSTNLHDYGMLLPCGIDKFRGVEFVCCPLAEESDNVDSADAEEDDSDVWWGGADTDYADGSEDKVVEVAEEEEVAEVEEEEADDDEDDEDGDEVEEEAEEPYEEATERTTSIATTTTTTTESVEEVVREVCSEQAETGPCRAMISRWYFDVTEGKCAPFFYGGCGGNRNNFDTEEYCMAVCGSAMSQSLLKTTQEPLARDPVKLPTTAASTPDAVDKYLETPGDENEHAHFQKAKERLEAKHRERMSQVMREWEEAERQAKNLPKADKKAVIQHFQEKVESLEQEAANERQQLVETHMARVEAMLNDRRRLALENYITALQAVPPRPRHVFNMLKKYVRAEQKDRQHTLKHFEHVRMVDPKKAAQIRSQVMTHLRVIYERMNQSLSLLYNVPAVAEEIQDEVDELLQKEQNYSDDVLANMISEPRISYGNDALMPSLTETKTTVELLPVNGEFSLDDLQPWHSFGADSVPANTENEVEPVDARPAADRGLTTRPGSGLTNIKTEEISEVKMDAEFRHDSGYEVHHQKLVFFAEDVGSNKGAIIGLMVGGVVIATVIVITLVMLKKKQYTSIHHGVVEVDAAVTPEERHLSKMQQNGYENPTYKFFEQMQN

Active and inactive are the calls of the source. The rule behind the calls is not given here. Where only a bound is given, the exact number is not on record here.

The term inhibition denotes the relative decrease from the control value, in per cent. Usually IC50 stands for the concentration at which inhibition is half-maximal.

Cholinesterase, sequence (P81908 whole entry): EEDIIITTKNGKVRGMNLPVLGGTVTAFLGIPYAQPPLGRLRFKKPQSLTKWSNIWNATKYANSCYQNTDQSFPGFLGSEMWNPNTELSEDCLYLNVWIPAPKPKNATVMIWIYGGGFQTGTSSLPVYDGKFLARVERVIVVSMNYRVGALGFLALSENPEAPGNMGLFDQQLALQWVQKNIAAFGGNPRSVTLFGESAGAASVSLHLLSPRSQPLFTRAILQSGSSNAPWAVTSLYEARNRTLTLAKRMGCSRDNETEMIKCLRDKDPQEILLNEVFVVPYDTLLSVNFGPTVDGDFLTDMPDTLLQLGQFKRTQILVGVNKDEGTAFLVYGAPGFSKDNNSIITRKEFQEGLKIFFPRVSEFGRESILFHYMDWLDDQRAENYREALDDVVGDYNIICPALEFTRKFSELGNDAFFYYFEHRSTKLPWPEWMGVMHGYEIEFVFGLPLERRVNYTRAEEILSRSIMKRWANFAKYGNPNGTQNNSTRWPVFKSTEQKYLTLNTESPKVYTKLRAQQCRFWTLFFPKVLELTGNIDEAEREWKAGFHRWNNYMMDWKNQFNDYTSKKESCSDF
Microtubule-associated protein tau (Homo sapiens), sequence (P10636 whole entry): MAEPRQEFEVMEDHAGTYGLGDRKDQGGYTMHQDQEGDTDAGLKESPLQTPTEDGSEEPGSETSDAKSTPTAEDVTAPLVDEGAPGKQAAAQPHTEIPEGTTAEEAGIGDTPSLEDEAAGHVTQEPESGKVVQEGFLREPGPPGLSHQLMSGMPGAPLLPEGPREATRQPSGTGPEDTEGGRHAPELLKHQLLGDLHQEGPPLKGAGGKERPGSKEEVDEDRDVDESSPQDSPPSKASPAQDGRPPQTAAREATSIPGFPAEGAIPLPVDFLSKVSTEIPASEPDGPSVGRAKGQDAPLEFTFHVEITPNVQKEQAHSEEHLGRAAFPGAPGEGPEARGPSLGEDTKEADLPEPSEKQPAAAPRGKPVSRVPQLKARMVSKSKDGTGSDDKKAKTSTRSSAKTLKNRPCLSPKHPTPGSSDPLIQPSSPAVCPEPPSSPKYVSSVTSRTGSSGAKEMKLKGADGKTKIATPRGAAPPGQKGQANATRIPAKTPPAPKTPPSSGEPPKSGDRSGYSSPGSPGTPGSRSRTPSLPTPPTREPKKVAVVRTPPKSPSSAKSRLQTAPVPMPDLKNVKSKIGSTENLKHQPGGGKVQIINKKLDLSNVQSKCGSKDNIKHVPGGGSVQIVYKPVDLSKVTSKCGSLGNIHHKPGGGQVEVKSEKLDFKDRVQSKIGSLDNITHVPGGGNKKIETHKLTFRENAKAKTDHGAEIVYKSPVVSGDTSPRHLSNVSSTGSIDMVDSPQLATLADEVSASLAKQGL
Cholinesterase (Equus caballus), sequence (P81908 whole entry): as the sequence (P81908 whole entry) above

As for `c1ccc(CCC2CCCN(CCNC3CCN(Cc4ccccc4)C3)C2)cc1` (stereo not given), the Activity in [1] is 9%; in test [2], 33%; in test [3] it was 26%; in test [5], 76%; in [7], 4%; in test [8], 36%. Also, the Activity turned out to be 60% in test [9]; 2% in test [11]; 12% in test [12]; 6% in test [13]; 3% in [14]; 18% in test [15]. Also, the Activity in test [17] turned out to be 12%; in [18] it was 7%; in [19] it was 4%; in test [20] it was 9%; in test [21], 11%; in test [22] it was 25%. Further, the inhibition in [4] was 38.5%; in test [6], 41.3%; against Beta-secretase 1, 42.6%; in test [16], 57.2%. For the same molecule, the outcome in test [10] was Active. This molecule gave a half-maximal inhibitory concentration (IC50) against Cholinesterase of 3260 nM.

On to `c1ccc(CN2CCN(CCNC3CCN(Cc4ccccc4)C3)CC2)cc1` (stereo not given), for which the Activity is 45% in test [1]; 54% in [2]; 50% in [3]; 93% in test [5]; 9% in test [7]; 58% in [8]. Further, the Activity stood at 84% in test [9]; 17% in [11]; 26% in [12]; 13% in test [13]; 27% in [14]; 36% in test [15]. Moreover, the Activity in test [17] amounted to 18%; in test [18], 15%; in [19] it was 30%; in test [20], 48%; in test [21] it was 51%; in [22] it was 43%. Also, the inhibition is 36.7% in test [23]; less than 10% in test [4]; 37.9% in test [6]; 13.6% against Beta-secretase 1; 60.6% in [16]; 19.2% in [24]. Besides, the result in [10] was Active.

With `O=C(CN1CCC(Cc2ccccc2)CC1)NC1CCN(Cc2ccccc2)C1` (stereo not given), the Activity came to 5% in test [1]; 11% in test [2]; 12% in [3]; 27% in test [5]; 5% in test [7]; 14% in [8]. Moreover, the Activity in test [9] came to 20%; in test [11], 2%; in [12], 8%; in [13], 16%; in test [14] it was 5%; in [15], 9%. In addition, the Activity is 7% in test [17]; 4% in test [18]; 6% in test [19]; 6% in test [20]; 8% in test [21]; 10% in test [22]. Also, the inhibition is 36.1% in test [23]; less than 10% in test [4]; 35% in test [6]; 55.6% on Beta-secretase 1; 66.8% in test [16]; 22.1% in [24].

In the case of `c1ccc(CC2CCN(CCNC3CCN(Cc4ccccc4)C3)CC2)cc1` (stereo not given), the Activity in test [1] came to 13%; in test [2], 21%; in test [3], 21%; in [5], 55%; in test [7], 1%; in [8], 27%. Besides, the Activity turned out to be 43% in test [9]; 6% in test [11]; 11% in [12]; 2% in test [13]; 11% in test [14]; 12% in test [15]. Further, the Activity in test [17] was 9%; in [18], 3%; in [19] it was 13%; in [20], 20%; in [21] it was 22%; in [22], 17%. Also, the inhibition in test [4] was 21.2%; in [6], 36.6%; on Beta-secretase 1 it was less than 10%; in test [16] it was 61%. Moreover, the result in test [10] was Active. Also, at Cholinesterase, the midpoint of inhibition, the IC50, lay at 620 nM.

Regarding `c1ccc(CCC2CCN(CCNC3CCN(Cc4ccccc4)C3)CC2)cc1` (stereo not given), the Activity in [1] came to 11%; in [2], 3%; in test [3] it was 24%; in [5] it was 45%; in [7], 2%; in test [8], 33%. In addition, the Activity worked out at 29% in test [9]; 1% in test [11]; 12% in test [12]; 2% in test [13]; 6% in test [14]; 12% in [15]. Further, the Activity turned out to be 8% in test [17]; 3% in [18]; 9% in test [19]; 13% in [20]; 16% in test [21]; 18% in test [22]. In addition, the inhibition in test [4] was less than 10%; in test [6] it was 41%; at Beta-secretase 1, 31%; in test [16], 67.8%. Also, in [10], the outcome was Active. The same molecule registered an IC50 against Cholinesterase of 7390 nM.

For the molecule `c1ccc(CN2CCC(NCCN3CCCC(c4ccccc4)C3)C2)cc1` (stereo not given), the Activity came to 34% in test [1]; 54% in test [2]; 47% in test [3]; 96% in test [5]; 11% in [7]; 59% in test [8]. Moreover, the Activity is 85% in [9]; 15% in test [11]; 24% in [12]; 13% in [13]; 22% in test [14]; 27% in [15]. For the same molecule, the Activity in test [17] amounted to 14%; in test [18], 15%; in [19], 25%; in [20], 36%; in test [21], 39%; in [22], 38%. In addition, the inhibition in test [4] turned out to be 40.8%; against Beta-secretase 1, 25%. Moreover, the result in [10] was Active. The molecule also came in with a half-maximal inhibitory concentration (IC50) on Cholinesterase of 2390 nM.

As for `c1ccc(CC2CCCN(CCNC3CCN(Cc4ccccc4)C3)C2)cc1` (stereo not given), the Activity in test [1] was 30%; in [2], 49%; in test [3], 40%; in test [5], 94%; in [7] it was 7%; in [8] it was 53%. The Activity in test [9] was 80%; in test [11], 24%; in test [12], 18%; in [13] it was 10%; in test [14] it was 28%; in test [15], 14%. In addition, the Activity in [17] worked out at 21%; in test [18], 10%; in [19], 30%; in test [20] it was 32%; in [21], 35%; in test [22], 5%. Besides, the inhibition amounted to 29.9% in test [4] and 24.1% on Beta-secretase 1. Also, the outcome in [10] was Active. At Cholinesterase, this molecule returned an IC50 of 1940 nM.

(Values after ChEMBL document CHEMBL4376850, “1-Benzylpyrrolidine-3-amine-based BuChE inhibitors with anti-aggregating, antioxidant and metal-chelating properties as multifunctional agents against Alzheimer's disease” (Eur J Med Chem, 2020).)
